# Assay results as given in the kinase profiling compilation of Christmann-Franck et al. (2016).
# Key:
# Test in all cases: KINOMEscan competition binding
# Details in all cases: compound 10.0 µM
# RPS6KA5 KD1 (human) = RPS6KA5 KD1 (human) (UniProt O75582)
# DAPK3 (human) = DAPK3 (human) (UniProt O43293)
# RIPK4 (human) = RIPK4 (human) (UniProt P57078)
# MAPK12 (human) = MAPK12 (human) (UniProt P53778)
# CASK (human) = CASK (human) (UniProt O14936)
# PAK2 (human) = PAK2 (human) (UniProt Q13177)
# Chain of PAK2 (human) (Q13177 whole entry, looked up): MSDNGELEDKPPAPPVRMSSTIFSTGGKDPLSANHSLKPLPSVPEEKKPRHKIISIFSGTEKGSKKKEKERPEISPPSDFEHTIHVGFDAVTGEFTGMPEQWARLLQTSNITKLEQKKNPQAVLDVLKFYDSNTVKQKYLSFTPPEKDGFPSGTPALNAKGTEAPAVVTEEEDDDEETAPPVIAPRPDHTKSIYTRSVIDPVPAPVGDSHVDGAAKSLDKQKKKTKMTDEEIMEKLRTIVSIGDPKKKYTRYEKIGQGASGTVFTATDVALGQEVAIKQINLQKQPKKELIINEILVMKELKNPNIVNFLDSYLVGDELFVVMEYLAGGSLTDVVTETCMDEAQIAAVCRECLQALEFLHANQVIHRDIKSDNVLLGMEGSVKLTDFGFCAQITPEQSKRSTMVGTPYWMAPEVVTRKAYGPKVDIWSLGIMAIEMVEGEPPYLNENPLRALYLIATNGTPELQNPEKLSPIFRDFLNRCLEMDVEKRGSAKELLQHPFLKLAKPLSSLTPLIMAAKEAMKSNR
# PIK3CG (human) = PIK3CG (human) (UniProt P48736)
# LRRK2 (human) = LRRK2 (human) (UniProt Q5S007)
# PIP5K1C (human) = PIP5K1C (human) (UniProt O60331)
# RPS6KA3 KD1 (human) = RPS6KA3 KD1 (human) (UniProt P51812)
# AKT2 (human) = AKT2 (human) (UniProt P31751)
# DMPK (human) = DMPK (human) (UniProt Q09013)
# RPS6KB1 (human) = RPS6KB1 (human) (UniProt P23443)
# MKNK1 (human) = MKNK1 (human) (UniProt Q9BUB5)
# Chain of MKNK1 (human) (Q9BUB5 whole entry, looked up): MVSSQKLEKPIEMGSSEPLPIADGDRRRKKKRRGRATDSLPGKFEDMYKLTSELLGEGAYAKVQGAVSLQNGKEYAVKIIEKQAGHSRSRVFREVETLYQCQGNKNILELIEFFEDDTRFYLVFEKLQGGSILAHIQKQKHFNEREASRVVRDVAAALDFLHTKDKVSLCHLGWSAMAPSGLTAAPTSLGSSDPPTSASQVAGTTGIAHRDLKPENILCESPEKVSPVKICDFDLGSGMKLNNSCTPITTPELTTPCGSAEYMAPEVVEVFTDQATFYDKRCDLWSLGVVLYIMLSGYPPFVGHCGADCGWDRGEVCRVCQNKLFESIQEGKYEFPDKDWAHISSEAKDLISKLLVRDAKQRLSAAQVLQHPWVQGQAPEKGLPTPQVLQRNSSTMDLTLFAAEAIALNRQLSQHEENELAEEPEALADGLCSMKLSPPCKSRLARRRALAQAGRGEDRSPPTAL
# CDK18 (human) = CDK18 (human) (UniProt Q07002)
# Chain of CDK18 (human) (Q07002 whole entry, looked up): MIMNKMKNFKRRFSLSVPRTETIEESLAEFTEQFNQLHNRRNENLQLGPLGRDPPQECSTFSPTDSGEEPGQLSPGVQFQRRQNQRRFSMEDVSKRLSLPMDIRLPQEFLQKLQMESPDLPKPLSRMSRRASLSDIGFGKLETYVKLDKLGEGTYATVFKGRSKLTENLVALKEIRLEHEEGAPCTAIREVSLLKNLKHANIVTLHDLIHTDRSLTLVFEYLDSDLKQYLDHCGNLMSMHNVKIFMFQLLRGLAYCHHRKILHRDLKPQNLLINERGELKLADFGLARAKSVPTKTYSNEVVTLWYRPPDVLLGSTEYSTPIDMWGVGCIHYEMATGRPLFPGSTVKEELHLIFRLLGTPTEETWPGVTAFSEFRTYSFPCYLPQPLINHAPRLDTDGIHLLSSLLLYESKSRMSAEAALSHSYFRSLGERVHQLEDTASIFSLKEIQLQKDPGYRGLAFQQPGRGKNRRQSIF
# NTRK3 (human) = NTRK3 (human) (UniProt Q16288)
# KIT (human) = KIT (human) (UniProt P10721)
# NEK9 (human) = NEK9 (human) (UniProt Q8TD19)
# Chain of NEK9 (human) (Q8TD19 whole entry, looked up): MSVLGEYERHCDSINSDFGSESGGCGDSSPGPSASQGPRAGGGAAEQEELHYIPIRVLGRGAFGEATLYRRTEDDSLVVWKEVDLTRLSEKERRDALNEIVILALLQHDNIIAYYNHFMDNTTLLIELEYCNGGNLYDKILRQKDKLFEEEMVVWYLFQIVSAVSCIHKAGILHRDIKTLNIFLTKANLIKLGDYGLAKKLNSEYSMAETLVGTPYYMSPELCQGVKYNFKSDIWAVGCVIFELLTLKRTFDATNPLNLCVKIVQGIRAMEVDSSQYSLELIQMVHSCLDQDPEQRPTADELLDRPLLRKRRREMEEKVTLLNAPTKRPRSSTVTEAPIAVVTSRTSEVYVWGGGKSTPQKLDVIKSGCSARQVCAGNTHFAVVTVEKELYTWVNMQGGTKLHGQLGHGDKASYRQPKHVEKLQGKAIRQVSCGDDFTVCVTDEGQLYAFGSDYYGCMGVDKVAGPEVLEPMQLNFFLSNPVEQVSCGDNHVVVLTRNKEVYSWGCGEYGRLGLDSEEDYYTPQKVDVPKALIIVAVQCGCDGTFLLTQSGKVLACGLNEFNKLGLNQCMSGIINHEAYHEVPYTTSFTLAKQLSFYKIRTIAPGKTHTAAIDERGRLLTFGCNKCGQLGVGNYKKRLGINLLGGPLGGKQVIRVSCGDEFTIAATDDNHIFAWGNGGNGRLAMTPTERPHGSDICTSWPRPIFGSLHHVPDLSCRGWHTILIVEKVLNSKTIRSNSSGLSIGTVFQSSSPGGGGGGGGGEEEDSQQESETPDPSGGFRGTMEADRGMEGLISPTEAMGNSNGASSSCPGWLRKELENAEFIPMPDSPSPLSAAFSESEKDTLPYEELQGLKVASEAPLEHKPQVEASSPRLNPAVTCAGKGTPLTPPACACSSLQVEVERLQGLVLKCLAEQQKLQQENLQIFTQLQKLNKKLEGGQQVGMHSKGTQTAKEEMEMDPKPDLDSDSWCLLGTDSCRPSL
# LCK (human) = LCK (human) (UniProt P06239)
# Chain of LCK (human) (P06239 whole entry, looked up): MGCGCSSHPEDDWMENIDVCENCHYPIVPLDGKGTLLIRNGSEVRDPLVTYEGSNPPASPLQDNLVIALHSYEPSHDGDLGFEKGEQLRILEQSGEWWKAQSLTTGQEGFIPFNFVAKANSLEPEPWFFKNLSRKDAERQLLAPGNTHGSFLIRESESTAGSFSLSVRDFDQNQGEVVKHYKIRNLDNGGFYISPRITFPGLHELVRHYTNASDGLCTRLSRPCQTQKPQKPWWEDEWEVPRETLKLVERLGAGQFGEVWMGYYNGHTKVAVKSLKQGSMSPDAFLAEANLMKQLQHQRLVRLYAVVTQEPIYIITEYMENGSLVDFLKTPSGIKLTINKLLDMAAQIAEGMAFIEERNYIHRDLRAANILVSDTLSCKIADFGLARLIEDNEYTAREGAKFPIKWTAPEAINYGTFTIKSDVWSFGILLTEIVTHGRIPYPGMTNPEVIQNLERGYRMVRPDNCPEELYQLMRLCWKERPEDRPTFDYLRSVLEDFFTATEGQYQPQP
# EPHB2 (human) = EPHB2 (human) (UniProt P29323)
# Chain of EPHB2 (human) (P29323 whole entry, looked up): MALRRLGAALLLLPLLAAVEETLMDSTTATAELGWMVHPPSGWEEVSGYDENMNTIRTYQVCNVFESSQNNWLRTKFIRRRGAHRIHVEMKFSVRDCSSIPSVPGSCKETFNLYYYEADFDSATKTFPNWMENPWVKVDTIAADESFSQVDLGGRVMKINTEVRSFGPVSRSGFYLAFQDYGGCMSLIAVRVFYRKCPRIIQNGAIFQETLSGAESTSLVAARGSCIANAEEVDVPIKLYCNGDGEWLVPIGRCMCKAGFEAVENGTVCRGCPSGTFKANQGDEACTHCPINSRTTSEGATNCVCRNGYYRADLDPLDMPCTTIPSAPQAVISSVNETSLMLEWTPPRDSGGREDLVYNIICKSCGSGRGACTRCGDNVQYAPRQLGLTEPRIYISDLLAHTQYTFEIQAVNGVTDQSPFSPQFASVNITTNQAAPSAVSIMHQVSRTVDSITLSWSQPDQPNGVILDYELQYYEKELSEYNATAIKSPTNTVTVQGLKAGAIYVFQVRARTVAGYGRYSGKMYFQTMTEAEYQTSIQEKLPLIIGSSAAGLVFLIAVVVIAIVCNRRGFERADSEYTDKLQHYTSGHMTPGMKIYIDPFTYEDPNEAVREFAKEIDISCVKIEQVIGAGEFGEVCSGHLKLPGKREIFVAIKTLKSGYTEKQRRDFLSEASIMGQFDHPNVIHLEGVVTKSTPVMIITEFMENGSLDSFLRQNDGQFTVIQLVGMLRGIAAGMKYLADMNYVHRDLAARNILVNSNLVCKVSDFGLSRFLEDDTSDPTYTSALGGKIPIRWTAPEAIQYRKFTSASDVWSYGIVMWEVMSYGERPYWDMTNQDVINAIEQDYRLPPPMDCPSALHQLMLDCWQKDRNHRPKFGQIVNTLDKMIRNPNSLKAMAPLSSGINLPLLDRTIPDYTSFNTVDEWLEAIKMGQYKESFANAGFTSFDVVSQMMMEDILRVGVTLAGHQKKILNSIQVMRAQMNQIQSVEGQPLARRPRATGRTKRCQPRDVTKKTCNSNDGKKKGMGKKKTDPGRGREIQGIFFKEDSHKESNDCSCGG
# CDK5 (human) = CDK5 (human) (UniProt Q00535)
# PDPK1 (human) = PDPK1 (human) (UniProt O15530)
# AURKB (human) = AURKB (human) (UniProt Q96GD4)
# SGK110 (human) = SGK110 (human) (UniProt P0C264)
# CAMK4 (human) = CAMK4 (human) (UniProt Q16566)
# Chain of CAMK4 (human) (Q16566 whole entry, looked up): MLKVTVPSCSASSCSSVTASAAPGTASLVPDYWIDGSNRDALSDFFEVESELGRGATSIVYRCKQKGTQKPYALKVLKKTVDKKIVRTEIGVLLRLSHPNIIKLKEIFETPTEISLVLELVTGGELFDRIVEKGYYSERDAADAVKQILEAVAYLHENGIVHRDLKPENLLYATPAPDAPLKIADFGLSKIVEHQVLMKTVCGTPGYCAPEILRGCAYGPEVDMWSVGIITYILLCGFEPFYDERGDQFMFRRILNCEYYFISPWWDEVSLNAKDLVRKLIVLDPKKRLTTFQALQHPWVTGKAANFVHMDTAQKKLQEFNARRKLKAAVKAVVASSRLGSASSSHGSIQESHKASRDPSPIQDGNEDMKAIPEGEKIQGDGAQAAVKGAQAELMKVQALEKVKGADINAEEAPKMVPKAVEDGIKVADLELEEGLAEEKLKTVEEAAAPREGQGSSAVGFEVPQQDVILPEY
# DAPK1 (human) = DAPK1 (human) (UniProt P53355)
# PIK3CB (human) = PIK3CB (human) (UniProt P42338)
# DYRK1A (human) = DYRK1A (human) (UniProt Q13627)
# RPS6KA6 KD1 (human) = RPS6KA6 KD1 (human) (UniProt Q9UK32)
# MAP3K15 (human) = MAP3K15 (human) (UniProt Q6ZN16)
# CDC2L2 (human) = CDC2L2 (human) (UniProt Q9UQ88)
# TGFBR1 (human) = TGFBR1 (human) (UniProt P36897)
# TEK (human) = TEK (human) (UniProt Q02763)
# PRKAA2 (human) = PRKAA2 (human) (UniProt P54646)
# CDK11B (human) = CDK11B (human) (UniProt P21127)
# BRSK2 (human) = BRSK2 (human) (UniProt Q8IWQ3)
# PRKD3 (human) = PRKD3 (human) (UniProt O94806)
# CSNK1G1 (human) = CSNK1G1 (human) (UniProt Q9HCP0)
# CDKL2 (human) = CDKL2 (human) (UniProt Q92772)
# [1] = tested on: RET (human), P07949 [V804L]
# Chain of DAPK3 (human) (O43293 whole entry, looked up): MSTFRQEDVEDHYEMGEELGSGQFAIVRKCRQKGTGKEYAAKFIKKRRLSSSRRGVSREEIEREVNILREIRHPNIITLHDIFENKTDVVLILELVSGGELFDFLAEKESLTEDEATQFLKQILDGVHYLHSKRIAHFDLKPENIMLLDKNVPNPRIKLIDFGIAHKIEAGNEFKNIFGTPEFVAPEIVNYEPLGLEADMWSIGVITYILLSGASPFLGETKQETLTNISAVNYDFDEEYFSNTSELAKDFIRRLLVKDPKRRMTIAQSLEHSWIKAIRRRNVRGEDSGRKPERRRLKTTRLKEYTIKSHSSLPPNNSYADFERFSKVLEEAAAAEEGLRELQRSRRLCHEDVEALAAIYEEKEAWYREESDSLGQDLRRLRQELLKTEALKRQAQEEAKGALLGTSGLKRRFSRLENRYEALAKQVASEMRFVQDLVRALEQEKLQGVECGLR
Structure (SMILES),"kinase still bound, per cent of control (RPS6KA5 KD1 (human)) [%]","kinase still bound, per cent of control (DAPK3 (human)) [%]","kinase still bound, per cent of control (RIPK4 (human)) [%]","kinase still bound, per cent of control (MAPK12 (human)) [%]","kinase still bound, per cent of control (CASK (human)) [%]","kinase still bound, per cent of control (PAK2 (human)) [%]","kinase still bound, per cent of control (PIK3CG (human)) [%]","kinase still bound, per cent of control (LRRK2 (human)) [%]","kinase still bound, per cent of control (PIP5K1C (human)) [%]","kinase still bound, per cent of control (RPS6KA3 KD1 (human)) [%]","kinase still bound, per cent of control (AKT2 (human)) [%]","kinase still bound, per cent of control (DMPK (human)) [%]","kinase still bound, per cent of control (RPS6KB1 (human)) [%]","kinase still bound, per cent of control (MKNK1 (human)) [%]","kinase still bound, per cent of control (CDK18 (human)) [%]","kinase still bound, per cent of control (NTRK3 (human)) [%]","kinase still bound, per cent of control (NEK9 (human)) [%]","kinase still bound, per cent of control (LCK (human)) [%]","kinase still bound, per cent of control (EPHB2 (human)) [%]","kinase still bound, per cent of control (CDK5 (human)) [%]",other results
C=CC(=O)Nc1ccc(C(=O)c2sc(Nc3ccc(N4CCN(C)CC4)cc3OC)nc2N)cc1,100,2.6,89,100,100,68,96,5.2,44,9.6,100,12,100,34,100,93,100,89,100,86,"kinase still bound, per cent of control (KIT (human)): 78%; kinase still bound, per cent of control (PDPK1 (human)): 100%; kinase still bound, per cent of control (AURKB (human)): 62%; kinase still bound, per cent of control (SGK110 (human)): 100%; kinase still bound, per cent of control (CAMK4 (human)): 100%; kinase still bound, per cent of control (DAPK1 (human)): 9.4%; kinase still bound, per cent of control (PIK3CB (human)): 86%; kinase still bound, per cent of control (DYRK1A (human)): 0.15%; kinase still bound, per cent of control (RPS6KA6 KD1 (human)): 50%; kinase still bound, per cent of control (MAP3K15 (human)): 9.2%; kinase still bound, per cent of control (CDC2L2 (human)): 87%; kinase still bound, per cent of control (TGFBR1 (human)): 96%; kinase still bound, per cent of control (TEK (human)): 89%; kinase still bound, per cent of control (PRKAA2 (human)): 100%; kinase still bound, per cent of control (CDK11B (human)): 89%; kinase still bound, per cent of control (BRSK2 (human)): 72%; kinase still bound, per cent of control (PRKD3 (human)): 54%; kinase still bound, per cent of control (CSNK1G1 (human)): 18%; kinase still bound, per cent of control (CDKL2 (human)): 86%; kinase still bound, per cent of control [1]: 100%"
COc1cc2ncnc(Nc3cccc(Cl)c3)c2cc1OC,100,35,43,100,67,53,44,79,14,67,100,79,63,4.6,79,87,78,5.4,67,100,"kinase still bound, per cent of control (PDPK1 (human)): 80%; kinase still bound, per cent of control (AURKB (human)): 40%; kinase still bound, per cent of control (SGK110 (human)): 65%; kinase still bound, per cent of control (CAMK4 (human)): 100%; kinase still bound, per cent of control (DAPK1 (human)): 53%; kinase still bound, per cent of control (PIK3CB (human)): 47%; kinase still bound, per cent of control (DYRK1A (human)): 40%; kinase still bound, per cent of control (RPS6KA6 KD1 (human)): 46%; kinase still bound, per cent of control (MAP3K15 (human)): 34%; kinase still bound, per cent of control (CDC2L2 (human)): 77%; kinase still bound, per cent of control (TGFBR1 (human)): 88%; kinase still bound, per cent of control (TEK (human)): 97%; kinase still bound, per cent of control (PRKAA2 (human)): 100%; kinase still bound, per cent of control (CDK11B (human)): 86%; kinase still bound, per cent of control (BRSK2 (human)): 45%; kinase still bound, per cent of control (PRKD3 (human)): 88%; kinase still bound, per cent of control (CSNK1G1 (human)): 100%; kinase still bound, per cent of control (CDKL2 (human)): 84%; kinase still bound, per cent of control [1]: 100%"
CCc1nc(-c2cccc(C)c2)c(-c2ccnc(NC(=O)c3ccccc3)c2)s1,100,83,90,100,100,85,100,100,100,93,80,92,90,100,96,96,100,41,80,100,"kinase still bound, per cent of control (KIT (human)): 45%; kinase still bound, per cent of control (PDPK1 (human)): 89%; kinase still bound, per cent of control (AURKB (human)): 100%; kinase still bound, per cent of control (SGK110 (human)): 100%; kinase still bound, per cent of control (CAMK4 (human)): 99%; kinase still bound, per cent of control (DAPK1 (human)): 72%; kinase still bound, per cent of control (PIK3CB (human)): 95%; kinase still bound, per cent of control (DYRK1A (human)): 69%; kinase still bound, per cent of control (RPS6KA6 KD1 (human)): 94%; kinase still bound, per cent of control (MAP3K15 (human)): 100%; kinase still bound, per cent of control (CDC2L2 (human)): 90%; kinase still bound, per cent of control (TEK (human)): 94%; kinase still bound, per cent of control (PRKAA2 (human)): 100%; kinase still bound, per cent of control (CDK11B (human)): 88%; kinase still bound, per cent of control (BRSK2 (human)): 95%; kinase still bound, per cent of control (PRKD3 (human)): 26%; kinase still bound, per cent of control (CSNK1G1 (human)): 28%; kinase still bound, per cent of control (CDKL2 (human)): 80%; kinase still bound, per cent of control [1]: 99%"
